Measurements reported in US12358912B2 (ASCENTAGE PHARMA (SUZHOU) CO., LTD., priority 2020, dated 2025).

How the values were obtained:
Format in all cases: physicochemical
[1] = Suspension competitive test between Crystalline Form III and Crystalline Form XVIII (EtOAc, MTBE, n-butyl alcohol; solid tested by XRPD); settings: for Crystalline Form: solid by XRPD after suspension stirring 7 days; for interconversion rate of crystalline form III and crystalline form XVIII: suspension stirring 7 days
[2] = Suspension competitive agitation test between anhydrous crystalline forms I, III, XV, XVII and XVIII (IPA, MTBE; solid tested by XRPD); settings: solid by XRPD after suspension stirring 3 days
[3] = Stability test (1): physical and chemical stability by XRPD and HPLC at 80° C., 40° C./75% RH and 25° C./60% RH; settings: for chemical stability: degradation (HPLC purity) / physical stability: crystalline form (XRPD): 80° C. (sealed) 24 hours, 40° C./75% RH and 25° C./60% RH (open) 1 week; for purity (area %): HPLC
Experimental: (sealed) for 24 hours, at 40° C./75% RH and 25° C./60% RH (open) for 1 week, respectively. The physical and chemical stability of the samples were tested by XRPD and HPLC.

[4] = Evaluation of hygroscopicity by Dynamic Moisture Sorption Analyzer (DVS), with XRPD before and after DVS; settings: for hygroscopicity (in words) / moisture adsorption: DVS, 80% RH/25° C.; for moisture adsorption: humidity cycle 0% RH-95% RH-0% RH; for crystalline form after the DVS test (XRPD): XRPD of the sample after the DVS test

| chemical stability: degradation (HPLC purity) [3] | physical stability: crystalline form (XRPD) [3] | purity (area %) ([3]; 25° C./60% RH 1 week (open)) | purity (area %) ([3]; 40° C./75% RH 1 week (open)) | purity (area %) ([3]; 80° C. 24 hours (sealed)) | purity (area %) ([3]; starting point) | stability of crystalline form III and crystalline form XVIII relative to each other ([1]; room temperature) | interconversion rate of crystalline form III and crystalline form XVIII ([1]; room temperature) | hygroscopicity (in words) [4] | moisture adsorption [4] [%] | crystalline form after the DVS test (XRPD) [4] | Structure (SMILES) | also measured |
| --- | --- | --- | --- | --- | --- | --- | --- | --- | --- | --- | --- | --- |
| – | – | – | – | – | – | – | – | – | – | – | O=C(NS(=O)(=O)c1ccc(NC[C@H]2COCCO2)c([N+](=O)[O-])c1)c1ccc(N2CCN(CC3=C(c4ccc(Cl)cc4)CC4(CCC4)CC3)CC2)cc1Oc1cnc2[nH]ccc2c1 [listing 1 of 2 here] | Crystalline Form ([1]; EtOAc, 50° C.): Crystalline Form III; Crystalline Form ([1]; EtOAc, 70° C.): Crystalline Form III; Crystalline Form ([1]; EtOAc, room temperature): Crystalline Form V; Crystalline Form ([1]; MTBE, 50° C.): Crystalline Form III; Crystalline Form ([1]; MTBE, 70° C.): Crystalline Form III; Crystalline Form ([1]; n-Butyl alcohol, 50° C.): Crystalline Form III; Crystalline Form ([1]; n-Butyl alcohol, 70° C.): Crystalline Form III |
| – | – | – | – | – | – | – | – | – | – | – | O=C(NS(=O)(=O)c1ccc(NC[C@H]2COCCO2)c([N+](=O)[O-])c1)c1ccc(N2CCN(CC3=C(c4ccc(Cl)cc4)CC4(CCC4)CC3)CC2)cc1Oc1cnc2[nH]ccc2c1 [listing 2 of 2 here] | Crystalline Form ([2]; IPA, 50° C.): Crystalline Form III; Crystalline Form ([2]; IPA, 70° C.): Crystalline Form III; Crystalline Form ([2]; IPA, room temperature): Crystalline Form III; Crystalline Form ([2]; MTBE, 50° C.): Crystalline Form III; Crystalline Form ([2]; MTBE, 70° C.): Crystalline Form III; Crystalline Form ([2]; MTBE, room temperature): Crystalline Form III |
| did not degrade | did not change | 98.66 | 98.67 | 98.64 | 98.65 | similar | relatively slow | slight hygroscopicity | 0.9 | did not change | O=C(NS(=O)(=O)c1ccc(NCC2COCCO2)c([N+](=O)[O-])c1)c1ccc(N2CCN(CC3=C(c4ccc(Cl)cc4)CC4(CCC4)CC3)CC2)cc1Oc1cnc2[nH]ccc2c1 (single isomer, unassigned) [crystalline form III] | – |
| did not degrade | did not change | 99.60 | 99.61 | 99.61 | 99.48 | similar | relatively slow | almost no moisture absorption | 0.04 | did not change | O=C(NS(=O)(=O)c1ccc(NCC2COCCO2)c([N+](=O)[O-])c1)c1ccc(N2CCN(CC3=C(c4ccc(Cl)cc4)CC4(CCC4)CC3)CC2)cc1Oc1cnc2[nH]ccc2c1 (single isomer, unassigned) [crystalline form XVIII] | – |
